Experimental data reported in PMC3196665 (Chemical biology & drug design, 2011).
Where two headings read alike, the source gives them in different places.

Experiments:
EphA2 [1] = target: T1, EphA2 (Homo sapiens, UniProt P29317); assay type: cell-based
[2] = target: EphA4 AP binding to ephrin-A and ephrin-B ligands (Homo sapiens, UniProt P54764); conditions: ref [37]; cited from earlier work
EphA4 Fc = EphA4 Fc (Mus musculus, UniProt Q03137); assay: ELISA: inhibition of ephrin-A5 AP binding to immobilized EphA4 Fc
Sequence of EphA4 Fc (Q03137 20-547): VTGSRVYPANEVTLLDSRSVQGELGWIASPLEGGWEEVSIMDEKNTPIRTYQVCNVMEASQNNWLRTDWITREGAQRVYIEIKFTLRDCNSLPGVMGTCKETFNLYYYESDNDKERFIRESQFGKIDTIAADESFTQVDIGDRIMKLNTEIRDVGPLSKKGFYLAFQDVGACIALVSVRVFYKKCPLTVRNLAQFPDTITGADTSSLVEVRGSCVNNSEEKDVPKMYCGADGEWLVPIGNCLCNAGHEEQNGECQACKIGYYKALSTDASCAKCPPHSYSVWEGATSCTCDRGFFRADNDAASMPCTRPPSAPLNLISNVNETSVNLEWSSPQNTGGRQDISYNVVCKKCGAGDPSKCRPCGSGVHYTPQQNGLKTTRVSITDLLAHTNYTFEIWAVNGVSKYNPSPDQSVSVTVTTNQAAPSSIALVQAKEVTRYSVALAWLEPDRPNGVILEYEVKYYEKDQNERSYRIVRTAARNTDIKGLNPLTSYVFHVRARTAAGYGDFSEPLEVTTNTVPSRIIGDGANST

[3] = target: EphA4 ligand-binding domain (Homo sapiens, UniProt P54764); assay: 1H NMR of compound with increasing EphA4 ligand-binding domain; conditions: 10 mM phosphate buffer, pH 6.5; unmodified compound
Sequence of EphA4 ligand-binding domain (P54764 28-208): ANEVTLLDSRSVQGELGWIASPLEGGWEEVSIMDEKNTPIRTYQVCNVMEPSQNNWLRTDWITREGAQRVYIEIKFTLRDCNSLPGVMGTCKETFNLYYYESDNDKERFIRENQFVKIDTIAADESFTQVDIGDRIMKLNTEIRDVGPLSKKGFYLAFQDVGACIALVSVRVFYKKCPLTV

EphB1 = assay: ELISA: ephrin-B2 AP binding to immobilized EphB1 Fc
PC3 cells = assay: PC3 cell retraction assay; assay type: cell-based
EphB2 [4] = assay: Ephrin-B2 Fc-induced EphB2 tyrosine phosphorylation in COS cells; assay type: cell-based
EphB2 [5] = assay: ELISA: ephrin-B2 AP binding to immobilized EphB2 Fc
EphA5 = assay: ELISA: ephrin-A5 AP binding to immobilized EphA5 Fc
EphA6 = assay: ELISA: ephrin-A5 AP binding to immobilized EphA6 Fc
EphB4 = assay: ELISA: ephrin-B2 AP binding to immobilized EphB4 Fc
[6] = Stability of compound in DMSO, followed by ELISA IC50; assay type: physicochemical; conditions: DMSO at ≤ 10 mM, room temperature, after 4 days
EphA2 [7] = assay: Ephrin-A1 Fc-induced EphA2 tyrosine phosphorylation in COS cells; assay type: cell-based
EphB6 = assay: ELISA: ephrin-B2 AP binding to immobilized EphB6 Fc
EphA4 = EphA4 (Mus musculus, UniProt Q03137); assay: Ephrin-induced EphA4 tyrosine phosphorylation in HT22 neuronal cells; assay type: cell-based; conditions: ephrin-A5 Fc
Sequence of EphA4 (Q03137 20-986): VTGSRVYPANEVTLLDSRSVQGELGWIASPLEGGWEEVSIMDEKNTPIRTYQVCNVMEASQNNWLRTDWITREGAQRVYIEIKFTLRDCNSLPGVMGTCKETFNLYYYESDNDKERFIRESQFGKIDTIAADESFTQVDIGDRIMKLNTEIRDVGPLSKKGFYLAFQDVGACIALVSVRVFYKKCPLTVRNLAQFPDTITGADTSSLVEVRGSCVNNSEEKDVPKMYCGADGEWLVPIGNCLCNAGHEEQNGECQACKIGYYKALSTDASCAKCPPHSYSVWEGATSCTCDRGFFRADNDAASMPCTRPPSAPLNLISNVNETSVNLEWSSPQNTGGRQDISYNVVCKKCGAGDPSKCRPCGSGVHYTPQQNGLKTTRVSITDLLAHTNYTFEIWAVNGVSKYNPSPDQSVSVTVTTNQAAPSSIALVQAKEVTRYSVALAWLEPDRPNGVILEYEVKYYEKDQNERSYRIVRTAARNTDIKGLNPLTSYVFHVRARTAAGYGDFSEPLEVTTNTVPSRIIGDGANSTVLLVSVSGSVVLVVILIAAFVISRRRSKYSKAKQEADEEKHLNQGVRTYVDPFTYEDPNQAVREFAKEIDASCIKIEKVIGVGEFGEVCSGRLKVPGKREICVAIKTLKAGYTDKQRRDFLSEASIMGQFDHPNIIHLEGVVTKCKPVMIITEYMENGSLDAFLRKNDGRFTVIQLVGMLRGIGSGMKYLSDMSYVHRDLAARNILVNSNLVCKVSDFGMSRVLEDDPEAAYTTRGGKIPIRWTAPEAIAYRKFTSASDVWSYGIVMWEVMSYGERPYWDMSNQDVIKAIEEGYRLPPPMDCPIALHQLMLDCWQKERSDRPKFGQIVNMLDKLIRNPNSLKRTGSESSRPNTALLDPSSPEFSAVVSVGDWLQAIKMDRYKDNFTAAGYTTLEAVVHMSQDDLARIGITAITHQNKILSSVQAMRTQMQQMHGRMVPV

HUVE cells [8] = assay: MTT assay, HUVE cell viability; assay type: cell-based; conditions: 200 μM
EphA3 = assay: ELISA: ephrin-A5 AP binding to immobilized EphA3 Fc
EphB3 = assay: ELISA: ephrin-B2 AP binding to immobilized EphB3 Fc
EphA2 [9] = target: T1, EphA2; assay: TNFα-induced EphA2 tyrosine phosphorylation in HUVE cells; assay type: cell-based; conditions: 20 nM TNFα, 2 hours
EphA7 = assay: ELISA: ephrin-A5 AP binding to immobilized EphA7 Fc
HUVE cells [10] = assay: Capillary-like tube formation of HUVECs on Matrigel; assay type: cell-based; conditions: 18 hours
EphA2 [11] = system: EphA2
Eph receptors = conditions: ref [36]; cited from earlier work

T1 sequence (P29317 24-976): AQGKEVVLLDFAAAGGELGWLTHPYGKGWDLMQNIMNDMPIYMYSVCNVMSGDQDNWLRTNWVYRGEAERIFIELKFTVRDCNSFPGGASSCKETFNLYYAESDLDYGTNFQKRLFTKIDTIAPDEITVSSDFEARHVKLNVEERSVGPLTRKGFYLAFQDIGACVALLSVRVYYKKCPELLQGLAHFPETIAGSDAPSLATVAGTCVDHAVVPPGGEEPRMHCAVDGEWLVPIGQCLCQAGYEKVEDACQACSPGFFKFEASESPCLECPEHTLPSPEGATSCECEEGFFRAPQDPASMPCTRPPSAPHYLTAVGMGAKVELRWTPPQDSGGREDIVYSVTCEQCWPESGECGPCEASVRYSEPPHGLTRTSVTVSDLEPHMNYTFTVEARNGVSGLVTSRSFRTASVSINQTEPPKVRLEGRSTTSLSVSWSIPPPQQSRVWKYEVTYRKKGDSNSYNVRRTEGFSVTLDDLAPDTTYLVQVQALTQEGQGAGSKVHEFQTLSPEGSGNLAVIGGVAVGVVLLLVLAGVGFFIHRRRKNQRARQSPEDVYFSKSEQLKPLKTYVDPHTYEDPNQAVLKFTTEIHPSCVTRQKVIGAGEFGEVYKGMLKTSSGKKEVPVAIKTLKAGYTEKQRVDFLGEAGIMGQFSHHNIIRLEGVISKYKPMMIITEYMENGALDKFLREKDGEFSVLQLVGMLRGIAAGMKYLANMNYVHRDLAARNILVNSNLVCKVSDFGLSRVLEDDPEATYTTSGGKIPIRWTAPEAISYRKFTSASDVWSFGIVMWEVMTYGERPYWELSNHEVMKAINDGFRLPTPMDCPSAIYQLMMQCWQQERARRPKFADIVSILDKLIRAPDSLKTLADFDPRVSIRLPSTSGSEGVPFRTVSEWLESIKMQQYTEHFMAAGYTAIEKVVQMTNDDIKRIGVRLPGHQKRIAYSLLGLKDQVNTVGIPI
Sequence of EphA4 AP binding to ephrin-A and ephrin-B ligands (P54764 30-209 limits assumed): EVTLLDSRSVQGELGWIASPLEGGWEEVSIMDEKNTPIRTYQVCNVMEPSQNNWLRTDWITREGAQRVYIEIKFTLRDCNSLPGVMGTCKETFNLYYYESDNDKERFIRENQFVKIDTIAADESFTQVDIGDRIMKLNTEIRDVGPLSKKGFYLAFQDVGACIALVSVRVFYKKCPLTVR

Which “Inhibition of EphA2 phosphorylation in cells stimulated with ephrin-A1 Fc” value (EphA2 [1]; newly synthesized preparation, PC3 cells) does the source give for `Cc1ccc(C)n1-c1ccc(C(=O)O)c(O)c1` [Compound 1, reference compound] here?
The value was “did not show detectable inhibition”.

What about the “Inhibition of EphA2 phosphorylation in cells stimulated with ephrin-A1 Fc” value (EphA2 [1]; purchased preparation, PC3 cells) of the same molecule?
Its value is “activity comparable to that previously reported”.

What about the “Inhibition of EphA4 AP binding to ephrin-A4 and ephrin-B2” value [2] of the same molecule?
Its value is “do not efficiently inhibit”.

What about the “Change of activity in ephrin-A5-EphA4 ELISA on storage” value (EphA4 Fc; dry form exposed to air at room temperature) of the same molecule?
Its value is “becomes progressively more active”.

What about the “Inhibition of ephrin-A5 AP binding to EphA4 Fc” value (EphA4 Fc; newly synthesized preparation) of the same molecule?
Its value is “did not show detectable inhibition”.

And the “Inhibition of ephrin-A5 AP binding to EphA4 Fc” value (EphA4 Fc; purchased preparation)?
Its value is “activity comparable to that previously reported”.

And the “Binding to EphA4 (resonance peak shifts of compound protons)” value [3]?
The value was “some, albeit weak, ability to bind to EphA4”.

With `Cc1ccc(C)n1-c1ccc(O)c(C(=O)O)c1` [Compound 2] as the molecule, how does the “Inhibition of EphA4 AP binding to ephrin-A4 and ephrin-B2” value [2] read?
Its value is “do not efficiently inhibit”.

With `COC(=O)/C=C/c1ccc(-c2ccc(O)c(C(=O)OC)c2)o1` [Compound 76A5, (E)-methyl 2-hydroxy-5-(5-(3-methoxy-3-oxoprop-1-en-1-yl)furan-2-yl)benzoate] as the molecule, how does the “Inhibitory activity on ephrin-A5 AP binding to EphA4 Fc” value (EphA4 Fc) read?
Its value is “did not show detectable inhibitory activity”.

Which “Inhibitory activity on ephrin-A5 AP binding to EphA4 Fc” value (EphA4 Fc) does the source give for `O=Cc1ccc(-c2ccc(O)c(C(=O)O)c2)o1` [Compound 76B8, 5-(5-formylfuran-2-yl)-2-hydroxybenzoic acid] here?
Its value is “did not show detectable inhibitory activity”.

For `O=C(/C=C/c1ccc(-c2ccc(O)c(C(=O)O)c2)o1)/C=C/c1ccc(-c2ccc(O)c(C(=O)O)c2)o1` [Compound 76D10], which “Inhibition of ephrin binding to EphB1” value (EphB1) is on record?
Its value is “much lower to undetectable inhibitory activity”.

And the “Effect on cell morphology in the absence of ephrin” value (PC3 cells)?
The value was “does not affect cell morphology”.

What about the “Reversal of the effect of ephrin-A1 on cell area” value (from here on “Reversal”) (PC3 cells; 25 μM) of the same molecule?
The value was “partially”.

What about the “Reversal” value (PC3 cells; 50 μM) of the same molecule?
The value was “partially”.

What about the “Reversal” value (PC3 cells; 100 μM) of the same molecule?
The value was “reverted completely”.

And the “Inhibition of ephrin-A1 Fc-induced cell retraction” value (PC3 cells; concentrations between 25 and 100 μM)?
The value was “significantly counteracts these effects”.

What about the “Inhibition of EphB2 tyrosine phosphorylation” value (EphB2 [4]) of the same molecule?
Its value is “not EphB2 tyrosine phosphorylation”.

What about the “Effect of BSA in culture medium on compound activity” value (EphA2 [1]; 0.1 mg/mL BSA, COS and PC3 cells) of the same molecule?
The value was “inhibited the activity”.

What about the “Inhibition of EphA2 tyrosine phosphorylation” value (EphA2 [1]; PC3 cells, ephrin-A1 Fc) of the same molecule?
Its value is “inhibits tyrosine phosphorylation”.

And the “Inhibition of ephrin binding to EphB2” value (EphB2 [5])?
Its value is “much lower to undetectable inhibitory activity”.

And the “Inhibition of ephrin-A5 binding to EphA5” value (EphA5)?
Its value is “inhibits with substantial potency”.

What about the “Inhibition of ephrin-A5 binding to EphA6” value (EphA6) of the same molecule?
Its value is “inhibits with substantial potency”.

And the “Inhibition of ephrin-B2 binding to EphB4” value (EphB4)?
Its value is “inhibits with substantial potency”.

What about the “Increase in IC50 values on storage in DMSO” value [6] of the same molecule?
The value was 10 fold.

And the “Inhibition of EphA2 tyrosine phosphorylation” value (EphA2 [7])?
The value was “inhibits tyrosine phosphorylation”.

What about the “Inhibition of ephrin-B2 binding to EphB6” value (EphB6) of the same molecule?
Its value is “inhibits with substantial potency”.

And the “Inhibition of EphA4 tyrosine phosphorylation” value (EphA4)?
The value was “inhibits EphA4 tyrosine phosphorylation”.

And the “HUVE cell viability (MTT)” value (HUVE cells [8]; three days)?
The value was “minimally affected”.

And the “HUVE cell viability (MTT)” value (HUVE cells [8]; up to one day)?
The value was “not affected”.

What about the “Inhibition of ephrin binding to EphA3” value (EphA3) of the same molecule?
The value was “much lower to undetectable inhibitory activity”.

What about the “Inhibition of ephrin binding to EphB3” value (EphB3) of the same molecule?
The value was “much lower to undetectable inhibitory activity”.

What about the “Inhibition of EphA2 tyrosine phosphorylation in response to TNFα” value (EphA2 [9]) of the same molecule?
Its value is “inhibits EphA2 tyrosine phosphorylation”.

What about the “Selectivity among EphA and EphB receptors examined” value (EphA4 Fc) of the same molecule?
The value was “preferentially inhibits”.

And the “Time to binding equilibrium after addition of ephrin-A5 AP with compound” value (EphA4 Fc)?
The value was at most 3 h.

And the “Inhibitory activity in the presence of BSA” value (EphA4 Fc; 0.1 mg/ml BSA)?
The value was “lost”.

What about the “Inhibitory activity in the presence of collagen” value (EphA4 Fc; 0.1 mg/ml collagen) of the same molecule?
Its value is “not affected”.

And the “Reversibility of binding to EphA4 in ELISA” value (EphA4 Fc; 3 hour incubation, wash, 24 hours in binding buffer)?
The value was “does not appear to be reversible”.

What about the “Mode of inhibition (Bmax and KD of ephrin-A5 AP binding curves)” value (EphA4 Fc; increasing 76D10 concentrations) of the same molecule?
Its value is “consistent with competitive inhibition”.

And the “Inhibition of ephrin-A5 binding to EphA7” value (EphA7)?
Its value is “inhibits with substantial potency”.

What about the “Inhibition of capillary-like tube formation” value (HUVE cells [10]) of the same molecule?
The value was “inhibits capillary-like tube formation”.

And the “Selectivity among EphA and EphB receptors examined” value (EphA2 [11])?
The value was “preferentially inhibits”.

With `C[C@H](CCC(=O)O)[C@H]1CC[C@H]2[C@@H]3CC[C@@H]4C[C@H](O)CC[C@]4(C)[C@H]3CC[C@]12C` [lithocholic acid] as the molecule, how does the “Inhibition of Eph receptors” value (Eph receptors) read?
The value was “inhibit with similar low potency all Eph receptors examined”.
